Measured values as given in US20240199677A1, “GLYCOSYLTRANSFERASE INHIBITORS” (CALIFORNIA INSTITUTE OF TECHNOLOGY, priority 2018, published 2024).
In brackets after ≈: the same amount, converted by molar mass.

Experiments:
C. difficile spores = assay: Spore viability testing; assay type: cell-based; conditions: x2 MIC, 24 hours
[1] = Cytotoxicity MTT assay, Vero cells; assay type: cell-based, monkey; conditions: monkey
Protocol: (§1) Cytotoxicity Assays. Cytotoxicity assays were performed using Vero monkey kidney (ATCC CCL-81) and HepG2 human hepatoblastoma cell (ATCC HB-8065) lines. Vero or HepG2 cells were cultured in 75 cm^2 flasks and transferred to 96-well cell culture plates using ATCC-formulated Eagle's minimum essential medium containing 10% FBS, penicillin, and streptomycin. Serially diluted aliquots of each test compound at concentrations ranging from 0.78-200 μg/mL were added to the cells. […] The plates were incubated and cytotoxic effects were determined via the MTT assay.
(§2) Selected molecules were tested for cytotoxicity (IC50) in cancer and healthy cells via a MTT colorimetric assay.
(§3) Cytotoxicity Assays. For Vero cells: Vero cell was cultured in Complete eagle's minimum essential growth medium (EMEM) containing L-glutamine, sodium pyruvate, minimum essential amino acids, penicillin-streptomycin and 10% fetal bovine serum. Inoculating number of cells were 400,000 cells/mL and a final 40,000 cells/well. After 72 h of exposure of molecules to this cell line at concentrations ranging from 0.78 to 200 μg/mL, the culture medium was changed to complete EMEM without phenol red before addition of yellow tetrazolium dye; MTT. Viability was assessed on the basis of cellular conversion of MTT into a purple formazan product. The absorbance of the colored formazan product was measured at 570 nm by BioTek Synergy HT Spectrophotometer. Linearity of the MTT response to the cell number was determined.

Vero cells = assay: Cytotoxicity MTT assay, Vero cells; assay type: cell-based, monkey; conditions: Primates, Vero; Table 2; read-out: Vero cells IC50
Protocol: as §1, §2, §3

Hemolysis, sheep blood = assay type: cell-based; conditions: sheep, sheep blood
sheep blood = assay: Hemolysis, sheep blood; assay type: cell-based
Water solubility = assay type: physicochemical
B. subtilis = assay: Antibacterial activity (FIG. 4), B. subtilis; assay type: cell-based
LoVo = assay: Cytotoxicity MTT assay, LoVo; assay type: cell-based; conditions: Homo sapiens, LoVo; read-out: Cytotoxicity IC50 LoVo
Protocol: as §2
(§4) Each cell was cultured in recommended medium by ATCC, and the IC50 data were obtained with each cell line.

SK-OV-3 = assay: Cytotoxicity MTT assay, SK-OV-3; assay type: cell-based; conditions: Homo sapiens, SK-OV-3; read-out: Cytotoxicity IC50 SK-OV-3
Protocol: as §2, §4

AsPc-1 = assay: Cytotoxicity MTT assay, AsPc-1; assay type: cell-based; conditions: Homo sapiens, ASPC1; read-out: Cytotoxicity IC50 AsPc-1
Protocol: as §2, §4

Panc-1 = assay: Cytotoxicity MTT assay, Panc-1; assay type: cell-based; conditions: Homo sapiens, PANC-1; read-out: Cytotoxicity IC50 Panc-1
Protocol: as §2, §4

HPAF-II = assay: Cytotoxicity MTT assay, HPAF-II; assay type: cell-based; conditions: Homo sapiens, HPAF-II; read-out: Cytotoxicity IC50 HPAF-II
Protocol: as §2, §4

HCT 116 = assay: Cytotoxicity MTT assay, HCT 116; assay type: cell-based; conditions: Homo sapiens, HCT-116, read-out: Cytotoxicity IC50 HCT 116
Protocol: as §2, §4

[2] = Cytotoxicity MTT assay, HepG2; assay type: cell-based; conditions: human
Caco-2 = assay: Cytotoxicity MTT assay, Caco-2; assay type: cell-based; conditions: Homo sapiens, Caco-2; read-out: Cytotoxicity IC50 Caco-2
Protocol: as §2, §4

AsPc-1 cells [3] = assay: Cell viability assay (FIG. 5), AsPc-1; assay type: cell-based; conditions: after 4 days; 1.77 μM, 3.54 μM, and 14.17 μM
Protocol: (§5) The cytotoxic activity of 11 against AsPc-1 and Panc-1 cells was also measured through cell viability assays (FIG. 5). […] Similarly, the percentage of viable Panc-1 cells was near-zero after about 3 days in the presence of 11 (0.44 μM, 1.77 μM, and 7.08 μM).

Panc-1 cells = assay: Cell viability assay (FIG. 5), Panc-1; assay type: cell-based; conditions: after about 3 days; 0.44 μM, 1.77 μM, and 7.08 μM
Protocol: as §5

AsPc-1 cells [4] = assay: Scratch (wound healing) assay, AsPc-1; assay type: cell-based; conditions: FIG. 9, versus Gemcitabine
AsPc-1 cells [5] = assay: Synergistic assay (checkerboard), 11 and Paclitaxel; assay type: cell-based
Protocol: (§6) The FIC index was calculated according to the following equation. ΣFIC=FICA+FICB=CA/MICA+CB/MICB where MICA and MICB are MIC of drugs A and B, CA and CB are the concentrations of drugs A and B used in combination. In these interaction studies, ΣFIC of less than 0.5 represents synergistic activity.

AsPc-1 cells [6] = assay: Synergistic assay (checkerboard), 11 and Gemcitabine; assay type: cell-based
Protocol: as §6
These experiments were performed in the same manner as those of Example 7.

C. difficile ATCC43596 = assay: Minimum inhibitory concentration assay
[7] = Homo sapiens, ASPC1, 11 alone, AsPc-1 cells, read-out: IC50 A

With NC[C@H]1O[C@@H](O[C@H]([C@H]2O[C@@H](n3ccc(=O)[nH]c3=O)[C@H](O)[C@@H]2O)[C@H](NCCCC(=O)NCc2ccc(N3CCC(Oc4ccc(C(F)(F)F)cc4)CC3)cc2)C(N)=O)[C@H](O)[C@@H]1O [Compound 11] the “Effect on viability of C. difficile spores (CFU)” value (C. difficile spores) was “caused loss of viability of C. difficile spores”, the IC50 at 72 h [1] was over 65000 nM and the IC50 (Vero cells) was 56800 nM. The IC50 (Hemolysis, sheep blood) was 206000 nM, the IC50 (sheep blood) was 206000 nM and the “Water solubility, times greater than 10” value (Water solubility; relative to 10) was 200 times. For the same compound, the solubility (Water solubility; water) was 22 mg/mL (≈ 25.4 mM), the “Antibacterial activity against B. subtilis” value (B. subtilis) was “displayed antibacterial activity” and the IC50 (LoVo) was 220 nM. It also gave an IC50 (SK-OV-3) of 2850 nM, an IC50 (AsPc-1) of 950 nM and an IC50 (Panc-1) of under 98 nM. For the same compound, the IC50 (HPAF-II) was under 98 nM, the IC50 (HCT 116) was 3540 nM and the IC50 [2] was over 60000 nM. For the same compound, the IC50 (Caco-2) was over 60000 nM, the AsPc-1 cell viability (AsPc-1 cells [3]) was “Nearly all AsPc-1 cells were killed” and the “Percentage of viable Panc-1 cells” value (Panc-1 cells) was “near-zero”. For the same compound, the “AsPc-1 cell migration, scratch assay” value (AsPc-1 cells [4]) was “less AsPc-1 cell migration than Gemcitabine”, the “Σ FIC” value (AsPc-1 cells [5]; Entry 1: A 11 CA 14.2 nM + B Paclitaxel CB 0.4 nM) was 0.224 and the “Σ FIC” value (AsPc-1 cells [5]; Entry 2: A 11 CA 14 nM + B Paclitaxel CB 0.88 nM) was 0.16. The “Σ FIC” value (AsPc-1 cells [5]; Entry 3: A 11 CA 14 nM + B Paclitaxel CB 7 nM) was 0.27, the “Σ FIC” value (AsPc-1 cells [5]; Entry 4: A 11 CA 220 nM + B Paclitaxel CB 40 nM) was 0.224 and the “Σ FIC” value (AsPc-1 cells [5]; Entry 5: A 11 CA 110 nM + B Paclitaxel CB 88 nM) was 0.114. The IC50 (AsPc-1 cells [5]; [7]) was 982 nM, the “Effect of combination of 11 and Taxol” value (AsPc-1 cells [5]; all five combinations) was “synergistic effect” and the AsPc-1 cells dead/alive (AsPc-1 cells [6]; Compound 11 0.0488281 μM + Gemcitabine 0.024414 μM) was “alive”. The AsPc-1 cells dead/alive (AsPc-1 cells [6]; Compound 11 0.0488281 μM + Gemcitabine 0.048828 μM) was “alive”, the AsPc-1 cells dead/alive (AsPc-1 cells [6]; Compound 11 0.0488281 μM + Gemcitabine 0.097656 μM) was “dead” and the AsPc-1 cells dead/alive (AsPc-1 cells [6]; Compound 11 0.0488281 μM + Gemcitabine 0.195313 μM) was “dead”. For the same compound, the AsPc-1 cells dead/alive (AsPc-1 cells [6]; Compound 11 0.0488281 μM + Gemcitabine 0.390625 μM) was “dead”, the AsPc-1 cells dead/alive (AsPc-1 cells [6]; Compound 11 0.0976563 μM + Gemcitabine 0.024414 μM) was “alive” and the AsPc-1 cells dead/alive (AsPc-1 cells [6]; Compound 11 0.0976563 μM + Gemcitabine 0.048828 μM) was “alive”. For the same compound, the AsPc-1 cells dead/alive (AsPc-1 cells [6]; Compound 11 0.0976563 μM + Gemcitabine 0.097656 μM) was “dead”, the AsPc-1 cells dead/alive (AsPc-1 cells [6]; Compound 11 0.0976563 μM + Gemcitabine 0.195313 μM) was “dead” and the AsPc-1 cells dead/alive (AsPc-1 cells [6]; Compound 11 0.0976563 μM + Gemcitabine 0.390625 μM) was “dead”. For the same compound, the AsPc-1 cells dead/alive (AsPc-1 cells [6]; Compound 11 0.1953125 μM + Gemcitabine 0.024414 μM) was “alive”, the AsPc-1 cells dead/alive (AsPc-1 cells [6]; Compound 11 0.1953125 μM + Gemcitabine 0.048828 μM) was “alive” and the AsPc-1 cells dead/alive (AsPc-1 cells [6]; Compound 11 0.1953125 μM + Gemcitabine 0.097656 μM) was “dead”. For the same compound, the AsPc-1 cells dead/alive (AsPc-1 cells [6]; Compound 11 0.1953125 μM + Gemcitabine 0.195313 μM) was “dead”, the AsPc-1 cells dead/alive (AsPc-1 cells [6]; Compound 11 0.1953125 μM + Gemcitabine 0.390625 μM) was “dead” and the AsPc-1 cells dead/alive (AsPc-1 cells [6]; Compound 11 0.390625 μM + Gemcitabine 0.024414 μM) was “alive”. For the same compound, the AsPc-1 cells dead/alive (AsPc-1 cells [6]; Compound 11 0.390625 μM + Gemcitabine 0.048828 μM) was “alive”, the AsPc-1 cells dead/alive (AsPc-1 cells [6]; Compound 11 0.390625 μM + Gemcitabine 0.097656 μM) was “dead” and the AsPc-1 cells dead/alive (AsPc-1 cells [6]; Compound 11 0.390625 μM + Gemcitabine 0.195313 μM) was “dead”. The AsPc-1 cells dead/alive (AsPc-1 cells [6]; Compound 11 0.390625 μM + Gemcitabine 0.390625 μM) was “dead”, the AsPc-1 cells dead/alive (AsPc-1 cells [6]; Compound 11 0.78125 μM + Gemcitabine 0.024414 μM) was “alive” and the AsPc-1 cells dead/alive (AsPc-1 cells [6]; Compound 11 0.78125 μM + Gemcitabine 0.048828 μM) was “alive”. For the same compound, the AsPc-1 cells dead/alive (AsPc-1 cells [6]; Compound 11 0.78125 μM + Gemcitabine 0.097656 μM) was “dead”, the AsPc-1 cells dead/alive (AsPc-1 cells [6]; Compound 11 0.78125 μM + Gemcitabine 0.195313 μM) was “dead” and the AsPc-1 cells dead/alive (AsPc-1 cells [6]; Compound 11 0.78125 μM + Gemcitabine 0.390625 μM) was “dead”. The “Σ FIC” value (AsPc-1 cells [6]; Entry 1: A 11 CA […] + B Gemcitabine CB 0.37 μM) was 0.3, the “Σ FIC” value (AsPc-1 cells [6]; Entry 2: A 11 CA 0.22 μM + B Gemcitabine CB 0.37 μM) was 0.47 and the IC50 (AsPc-1 cells [6]; [7]) was 980 nM. The “Concentration in combination resulting in AsPc-1 cell death” value (AsPc-1 cells [6]; as low as, 11 together with Gemcitabine) was 0.0488 µM, the “Effect of combination of 11 and Gemcitabine” value (AsPc-1 cells [6]; both combinations tested) was “synergistic effect” and the Anti-C. difficile activity (C. difficile ATCC43596) was “display anti-C. difficile activity”. The MIC (C. difficile ATCC43596; Clostridioides difficile, ATCC43596, 48 h, read-out: C. difficile ATCC43596 MIC) was 3.25 µg/mL (≈ 0.00375 mM) and the “Antibacterial activity against C. difficile” value (C. difficile ATCC43596; FIG. 4) was “displayed antibacterial activity”.
